Reference: ChEMBL document CHEMBL3817755, “Design, synthesis and biological evaluation of indazolepyrimidine based derivatives as anticancer agents with anti-angiogenic and antiproliferative activities” (Medchemcomm, 2016)

Biological target: Vascular endothelial growth factor receptor 2 (Homo sapiens, UniProt P35968)
Assay: Inhibition of VEGFR-2 (unknown origin) at 10 uM after 1 hr by Z'LYTE assay

Sequence of Vascular endothelial growth factor receptor 2 (P35968 whole entry): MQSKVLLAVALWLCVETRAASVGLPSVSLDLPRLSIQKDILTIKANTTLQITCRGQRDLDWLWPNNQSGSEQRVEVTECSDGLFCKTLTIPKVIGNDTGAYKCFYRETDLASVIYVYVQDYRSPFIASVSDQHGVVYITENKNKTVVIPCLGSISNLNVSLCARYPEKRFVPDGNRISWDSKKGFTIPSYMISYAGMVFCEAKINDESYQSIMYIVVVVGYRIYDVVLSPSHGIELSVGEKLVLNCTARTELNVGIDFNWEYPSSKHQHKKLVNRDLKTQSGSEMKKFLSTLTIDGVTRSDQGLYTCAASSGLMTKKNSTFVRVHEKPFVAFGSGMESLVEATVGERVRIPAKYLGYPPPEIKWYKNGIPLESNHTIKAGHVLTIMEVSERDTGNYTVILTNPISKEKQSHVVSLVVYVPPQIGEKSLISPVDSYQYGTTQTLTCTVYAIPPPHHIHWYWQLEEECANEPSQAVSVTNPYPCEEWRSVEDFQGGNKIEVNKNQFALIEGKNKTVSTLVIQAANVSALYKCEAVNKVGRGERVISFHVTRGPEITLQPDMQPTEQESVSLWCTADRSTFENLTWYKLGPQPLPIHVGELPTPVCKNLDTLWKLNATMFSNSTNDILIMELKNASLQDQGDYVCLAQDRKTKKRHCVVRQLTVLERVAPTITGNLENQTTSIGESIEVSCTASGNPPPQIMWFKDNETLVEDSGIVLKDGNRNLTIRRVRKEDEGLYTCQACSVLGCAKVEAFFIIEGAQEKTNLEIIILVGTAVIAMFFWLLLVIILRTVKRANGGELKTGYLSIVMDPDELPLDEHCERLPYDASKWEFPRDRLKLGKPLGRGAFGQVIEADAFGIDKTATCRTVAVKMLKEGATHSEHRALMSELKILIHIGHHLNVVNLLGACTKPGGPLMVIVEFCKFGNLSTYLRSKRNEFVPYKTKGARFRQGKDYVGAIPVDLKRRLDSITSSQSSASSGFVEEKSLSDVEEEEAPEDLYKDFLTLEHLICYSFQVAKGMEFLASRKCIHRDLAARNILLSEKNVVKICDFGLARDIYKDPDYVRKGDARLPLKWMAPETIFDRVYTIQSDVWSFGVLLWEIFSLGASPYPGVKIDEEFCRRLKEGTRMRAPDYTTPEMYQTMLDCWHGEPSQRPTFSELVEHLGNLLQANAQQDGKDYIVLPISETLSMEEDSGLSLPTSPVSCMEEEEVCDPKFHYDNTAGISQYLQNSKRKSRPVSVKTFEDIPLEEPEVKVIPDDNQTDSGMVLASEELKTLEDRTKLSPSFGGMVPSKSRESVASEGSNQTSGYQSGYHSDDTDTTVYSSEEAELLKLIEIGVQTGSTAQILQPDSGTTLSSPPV

Row | inhibition [%] | Compound
1 | 60.8 | Cc1c2ccc(Nc3ccnc(Nc4ccc(S(N)(=O)=O)cc4)n3)cc2nn1C
2 | 63.8 | Cc1c2ccc(Nc3ccnc(Nc4ccc(F)cc4)n3)cc2nn1C
